From patent publication US12655125B2 (SIRONAX LTD., priority 2020, dated 2026)

Test system: HT-29 cells
Test: HT29 Cells 0FBS Assay In Vitro (TNF-α/SMAC mimetic/zVAD-FMK induced necroptosis, CellTiter-Glo cell viability)
Assay type: cell-based
Details: Homo sapiens; HT-29 cells, FBS free medium, TNF-α (10 ng/ml), SMAC mimetic (6 uM), zVAD-FMK (10 μM), 20 hours; geometric mean EC50; read-out: Cell activity (EC50) of Compounds 1-116
From the text: Protocol for HT29 Cells 0FBS Assay In Vitro
• Cell line: HT-29 (ATCC® HTB-38™) • Culture medium: McCOY's 5 A, Gibco, Cat No. 16600-082 • FBS, Gibco, Cat No. 10099-141C • Trypsin: Gibco, Cat No. 25200-056 • DMSO: Sigma, Cat No. 67-68-5, 1 L • Assay plate: Corning #3903 • Compound dilution plate: Corning #3357 • Inducers: TNFα, GenScript, Cat No. ZO1001-50, • SmacM, Cat. No., HY-15989, MedChemExpress (MCE) • Z_VAD FMK, TargetMol, T6013 • Cell Titer-Glo® Luminescent Cell Viability Assay Kit: Promega, Cat No. G7573 • EnVision: PerkinElmer, 2105-0010 2. Cell Seeding of HT-29 Cells • 1) HT-29 cells were checked every day to make sure they are healthy and growing as expected. They were split sub-culturing when were approximately 80% confluent. • 2) First pre-warm the culture medium of McCOY's 5 A medium (Gibco, Cat No. 16600-082) with 10% FBS (Gibco, Cat No. 10099-141C) in 37° C. water bath for at least 30 min. • 3) Growing cells to desired level of confluency 80% in a T75 flask, aspirate the medium, and wash with warm PBS two times. • 4) Add 2-3 ml fresh warm trypsin (Gibco, Cat No. 25200-056) solution. Transfer the flask to a 37° C. incubator. • 5) After 5 minutes, tap the side of the flask, and examine the flask under a microscope for lifting. If necessary, return the cells to the incubator for an additional 5-10 minutes, with occasional tapping, until lifting is complete. • 6) Quickly neutralize the trypsin reaction by adding 6-9 ml cell culture medium, then transfer the cells to sterile 15 ml conical tubes. Pellet the cells by centrifugation at 300×g for 7 minutes, then decant the supernatant. • 7) Resuspend the cells in fresh cell culture medium. Do cell counting with hemocytometer. • 8) Seed 100 μl of 5,000 cells into each well of the sterile 96-well cell culture plate (Corning 3903) and culture overnight at 37° C. with 5% C02. 3. Compounds Titration and Treatment of HT-29 Cells • 1) All batches of compounds (CPDs) (e.g., compound 1-281) were dissolved in DMSO (Dimethyl sulfoxide) as 20 mM stock solution. • 2) Take 3 ul 20 mM stock solution of CPDs to 27 ul DMSO and mix well, continue the titration ratio of 1:3 (20 ul CPDs+40 ul DMSO), e.g., to give solutions of CPDS at 6.6 mM, 2.2 mM, etc., till the 10 points end. • 3) Take out assay plates with HT-29 cells from incubator, remove all culture medium then wash 1 time with 1×PBS, and change fresh McCOY's 5 A medium of FBS free with a cocktail of TNF-α (10 ng/ml), the SMAC mimetic (6 uM) and zVAD-FMK (10 μM) to stimulate the HT-29 cells to increase pRIPK1 levels and necroptosis. • 4) Add 0.5 μL of the diluted compound to the corresponding 96-well assay plates. • 5) Incubate the assay plates for 20 hours at 37° C. with 5% C02. 4. Performing Cell Viability Detection of HT-29 Cells after Treated with Compounds • 1) The CellTiter-Glo® Luminescent Cell Viability Assay was employed to detect the ATP levels of viable HT-29 cells. • 2) Equilibrate the CellTiter-Glo® buffer and the lyophilized substrate to room temperature prior to use. • 3) Resuspend the CellTiter-Glo® substrate with CellTiter-Glo® buffer, mix by gently vortexing to obtain a homogeneous solution. • 4) Pipette 20 μl the enzyme/substrate mixture by multi-channel pipette into the 96-well assay plates from step 5) under the Compounds titration and treatment stage. • 5) Place the plates on an orbital shaker and mix the contents for 3 minutes to induce cell lysis. • 6) Then allow the plates to incubate at room temperature for 10 minutes to stabilize luminescent signal. • 7) Read and record luminescence signal with EnVision. • 8) The geometric mean EC50 of the compounds were calculated from points response dose with duplicate. In Tables 2 and 4, activity is provided as follows: +++=0.1 nM≤EC50<100 nM; ++=100 nM≤EC50<1000 nM; +=1000 nM≤EC50<10000 nM.

| Structure (SMILES) | EC50 [µM] |
| --- | --- |
| Cc1nc(C)c(-c2ncc(F)c(OC3CN(C(=O)N4N=CC[C@H]4c4cc(F)cc(F)c4)C3)n2)s1 [compound 19, (S)-(5-(3,5-difluorophenyl)-4,5-dihydro-1H-pyrazol-1-yl)(3-((2-(2,4-dimethylthiazol-5-yl)-5-fluoropyrimidin-4-yl)oxy)azetidin-1-yl)methanone] | 0.0001 to 0.1 |
| Cc1noc(C)c1-c1ncc(F)c(OC2CN(C(=O)N3N=CC[C@H]3c3cc(F)cc(F)c3)C2)n1 [compound 20, (S)-(5-(3,5-difluorophenyl)-4,5-dihydro-1H-pyrazol-1-yl)(3-((2-(3,5-dimethylisoxazol-4-yl)-5-fluoropyrimidin-4-yl)oxy)azetidin-1-yl)methanone] | 0.0001 to 0.1 |
| Cc1oncc1-c1ncc(F)c(OC2CN(C(=O)N3N=CC[C@H]3c3cc(F)cc(F)c3)C2)n1 [compound 21, (S)-(5-(3,5-difluorophenyl)-4,5-dihydro-1H-pyrazol-1-yl)(3-((5-fluoro-2-(5-methylisoxazol-4-yl)pyrimidin-4-yl)oxy)azetidin-1-yl)methanone] | 0.0001 to 0.1 |
| Cc1nocc1-c1ncc(F)c(OC2CN(C(=O)N3N=CC[C@H]3c3cc(F)cc(F)c3)C2)n1 [compound 22, (S)-(5-(3,5-difluorophenyl)-4,5-dihydro-1H-pyrazol-1-yl)(3-((5-fluoro-2-(3-methylisoxazol-4-yl)pyrimidin-4-yl)oxy)azetidin-1-yl)methanone] | 0.0001 to 0.1 |
| Cc1csnc1-c1ccc(F)c(OC2CN(C(=O)N3N=CC[C@H]3c3cc(F)cc(F)c3)C2)n1 [compound 23, (S)-(5-(3,5-difluorophenyl)-4,5-dihydro-1H-pyrazol-1-yl)(3-((3-fluoro-6-(4-methylisothiazol-3-yl)pyridin-2-yl)oxy)azetidin-1-yl)methanone] | 0.0001 to 0.1 |
| Cc1nnc(-c2ccc(F)c(OC3CN(C(=O)N4N=CC[C@H]4c4cc(F)cc(F)c4)C3)n2)s1 [compound 24, (S)-(5-(3,5-difluorophenyl)-4,5-dihydro-1H-pyrazol-1-yl)(3-((3-fluoro-6-(5-methyl-1,3,4-thiadiazol-2-yl)pyridin-2-yl)oxy)azetidin-1-yl)methanone] | 0.0001 to 0.1 |
| Cc1ncc(-c2ncc(F)c(OC3CN(C(=O)N4N=CC[C@H]4c4cc(F)cc(F)c4)C3)n2)s1 [compound 25, (S)-(5-(3,5-difluorophenyl)-4,5-dihydro-1H-pyrazol-1-yl)(3-((5-fluoro-2-(2-methylthiazol-5-yl)pyrimidin-4-yl)oxy)azetidin-1-yl)methanone] | 0.0001 to 0.1 |
| Cc1ncc(-c2cc(OC3CN(C(=O)N4N=CC[C@H]4c4cc(F)cc(F)c4)C3)c(F)cn2)s1 [compound 26, (S)-(5-(3,5-difluorophenyl)-4,5-dihydro-1H-pyrazol-1-yl)(3-((5-fluoro-2-(2-methylthiazol-5-yl)pyridin-4-yl)oxy)azetidin-1-yl)methanone] | 0.0001 to 0.1 |
| Cc1nnc(-c2ccc(F)c(OC3CN(C(=O)N4N=CCC4c4cc(F)cc(F)c4)C3)n2)o1 (centres unmarked) [compound 27, (5-(3,5-difluorophenyl)-4,5-dihydro-1H-pyrazol-1-yl)(3-((3-fluoro-6-(5-methyl-1,3,4-oxadiazol-2-yl)pyridin-2-yl)oxy)azetidin-1-yl)methanone] | 0.1 to 1 |
| Cn1ncnc1-c1ccc(F)c(OC2CN(C(=O)N3N=CC[C@H]3c3cc(F)cc(F)c3)C2)n1 [compound 28, (S)-(5-(3,5-difluorophenyl)-4,5-dihydro-1H-pyrazol-1-yl)(3-((3-fluoro-6-(1-methyl-1H-1,2,4-triazol-5-yl)pyridin-2-yl)oxy)azetidin-1-yl)methanone] | 0.0001 to 0.1 |
| Cn1ncnc1-c1cc(OC2CN(C(=O)N3N=CC[C@H]3c3cc(F)cc(F)c3)C2)c(F)cn1 [compound 29, (S)-(5-(3,5-difluorophenyl)-4,5-dihydro-1H-pyrazol-1-yl)(3-((5-fluoro-2-(1-methyl-1H-1,2,4-triazol-5-yl)pyridin-4-yl)oxy)azetidin-1-yl)methanone] | 0.0001 to 0.1 |
| Cn1ncnc1-c1ncc(F)c(OC2CN(C(=O)N3N=CC[C@H]3c3cc(F)cc(F)c3)C2)n1 [compound 30, (S)-(5-(3,5-difluorophenyl)-4,5-dihydro-1H-pyrazol-1-yl)(3-((5-fluoro-2-(1-methyl-1H-1,2,4-triazol-5-yl)pyrimidin-4-yl)oxy)azetidin-1-yl)methanone] | 0.0001 to 0.1 |
| Cn1cc(-c2cc(OC3CN(C(=O)N4N=CC[C@H]4c4cc(F)cc(F)c4)C3)c(F)cn2)nn1 [compound 32, (S)-(5-(3,5-difluorophenyl)-4,5-dihydro-1H-pyrazol-1-yl)(3-((5-fluoro-2-(1-methyl-1H-1,2,3-triazol-4-yl)pyridin-4-yl)oxy)azetidin-1-yl)methanone] | 0.0001 to 0.1 |
| Cn1ncc(-c2cc(OC3CN(C(=O)N4N=CC[C@H]4c4cc(F)cc(F)c4)C3)c(F)cn2)n1 [compound 33, (S)-(5-(3,5-difluorophenyl)-4,5-dihydro-1H-pyrazol-1-yl)(3-((5-fluoro-2-(2-methyl-2H-1,2,3-triazol-4-yl)pyridin-4-yl)oxy)azetidin-1-yl)methanone] | 0.0001 to 0.1 |
| Cn1nncc1-c1cc(OC2CN(C(=O)N3N=CC[C@H]3c3cc(F)cc(F)c3)C2)c(F)cn1 [compound 34, (S)-(5-(3,5-difluorophenyl)-4,5-dihydro-1H-pyrazol-1-yl)(3-((5-fluoro-2-(1-methyl-1H-1,2,3-triazol-5-yl)pyridin-4-yl)oxy)azetidin-1-yl)methanone] | 0.0001 to 0.1 |
| Cc1cc(-c2ncc(F)c(OC3CN(C(=O)N4N=CC[C@H]4c4cc(F)cc(F)c4)C3)n2)n(C)n1 [compound 35, (S)-(5-(3,5-difluorophenyl)-4,5-dihydro-1H-pyrazol-1-yl)(3-((2-(1,3-dimethyl-1H-pyrazol-5-yl)-5-fluoropyrimidin-4-yl)oxy)azetidin-1-yl)methanone] | 0.0001 to 0.1 |
| Cc1cc(-c2cc(OC3CN(C(=O)N4N=CC[C@H]4c4cc(F)cc(F)c4)C3)c(F)cn2)n(C)n1 [compound 36, (S)-(5-(3,5-difluorophenyl)-4,5-dihydro-1H-pyrazol-1-yl)(3-((2-(1,3-dimethyl-1H-pyrazol-5-yl)-5-fluoropyridin-4-yl)oxy)azetidin-1-yl)methanone] | 0.0001 to 0.1 |
| Cc1nn(C)cc1-c1ncc(F)c(OC2CN(C(=O)N3N=CC[C@H]3c3cc(F)cc(F)c3)C2)n1 [compound 37, (S)-(5-(3,5-difluorophenyl)-4,5-dihydro-1H-pyrazol-1-yl)(3-((2-(1,3-dimethyl-1H-pyrazol-4-yl)-5-fluoropyrimidin-4-yl)oxy)azetidin-1-yl)methanone] | 0.0001 to 0.1 |
| Cc1nn(C)cc1-c1cc(OC2CN(C(=O)N3N=CC[C@H]3c3cc(F)cc(F)c3)C2)c(F)cn1 [compound 38, (S)-(5-(3,5-difluorophenyl)-4,5-dihydro-1H-pyrazol-1-yl)(3-((2-(1,3-dimethyl-1H-pyrazol-4-yl)-5-fluoropyridin-4-yl)oxy)azetidin-1-yl)methanone] | 0.0001 to 0.1 |
| Cn1ccc(-c2ncc(F)c(OC3CN(C(=O)N4N=CC[C@H]4c4cc(F)cc(F)c4)C3)n2)n1 [compound 39, (S)-(5-(3,5-difluorophenyl)-4,5-dihydro-1H-pyrazol-1-yl)(3-((5-fluoro-2-(1-methyl-1H-pyrazol-3-yl)pyrimidin-4-yl)oxy)azetidin-1-yl)methanone] | 0.1 to 1 |
